Tests used:
CM cells = assay: Cell viability (MTS) assay, CM; type: cell-based; conditions: 72 hour drug incubation (FIG. 1C)
PANC-1 cells = assay: Cell viability (MTS) assay, PANC-1; type: cell-based; conditions: Homo sapiens; PANC-1, 72 hour drug incubation (FIG. 1C)
Method: (§1) To prepare lysates, 0.5×10^6 PA NC-1 cells were seeded in 100 mm dishes in 10 ml DMEM High glucose and 24 hours later, 5-FU (Sigma) or 19-S were added at the specified concentrations. Cells were harvested after 72 hours and cell pellets were stored at −80° C. For GI50 determination, 3000 MIA PaCa-2 cells. […] After 72 hours, cell viability was assessed by reduction of MTS ((3-4,5-dimethylthiazol-2-yl)-5-(3-carboxymethoxyphenol)-2-(4-sulfophenyl)-2H-tetrazolium) using Cell Titer 96 R Aqueous One Solution Cell Proliferation Assay Kit (Promega), following manufacturer's recommendations. Chemiluminescent output (integration time 1000 ms) was measured on a SpectraMax M3® (Molecular devices). Data were normalized to max/minutes and plotted in GraphPad Prism for GI50 determination. Chemical synthesis details, including characterization of each compound, can be found in the supporting information document associated with this publication.

[1] = tested on: Luc-PANC-1 xenograft tumors; assay: Luc-PANC-1 subcutaneous xenograft tumor model; type: in vivo, NSG mice; conditions: for median survival: control 54 days
Method: (§2) Luc-PANC-1 (5×106) and Luc-CM (0.5×106) cells were resuspended in 200 ul of PBS and injected subcutaneously (SQ) or intraperitonially (IP) to 6-8-week-old NSG mice respectively. Tumor bearing mice were imaged using Xenogen IVIS® Lumina Bioluminescence Imaging System (Perkin Elmer) every week after cell injection. At 4 weeks, animals were randomized based on slope of luciferase signal and treatment was initiated. […] For all animals body weight was recorded weekly and Luc-PANC-1 tumor volume was measured weekly with a caliper. For scheduled sacrifice experiments, animals were euthanized after 4 weeks of treatment. […] Harvested tumors were excised and weighted, and fixed in alcoholic formalin (67.5% Ethanol, 10% Formaldehyde 37%, 22.5% water) for pathology analysis. Tumor volume was calculated as [volume=0.52 (length×width2)].
(§3) From this stock, the exact volume needed for daily in vivo delivery was then formulated into 95% corn oil (Mazola) at 2 different concentrations: 1.25 mg/mi (formulation 1) and 3.125 mg/ml (formulation 2). To determine the volume of solution administered to the mice, 200 μl (maximum volume to be delivered in mice via IP or oral gavage) was divided by 25 g of mouse body weight. Therefore, 8 μl of formulation 1 or 2 multiplied by the weight of the mice were used to reach a dose of 10 or 25 mg/kg of body weight, respectively.
(§4) Prior to bioluminescence imaging the region where tumors were located was shaved. Mice were then anesthetized with 2.5% isoflurane in 02 then administered the D-luciferin substrate (150 mg/kg in PBS) by IP injection. Following the injection of the D-luciferin substrate mice were imaged using the Xenogen IVIS® Lumina Bioluminescence Imaging System (Perkin Elmer). The peak of luciferase photon flux was recorded 6 minutes after injection of the D-luciferin substrate. The total photon flux was analyzed and restricted to tumor ROI (region of interest) using Living Image v2.60.1 software (Imaging Systems).

MIA PaCa-2 cells = assay: Cell viability (MTS) assay, MIA PaCa-2; type: cell-based; conditions: Homo sapiens, MIA PaCa-2, 72 h
Method: as §1

BON cells = assay: Cell viability (MTS) assay, BON; type: cell-based; conditions: 72 hour drug incubation (FIG. 1C)
[2] = Maximum tolerated dose (MTD) study; type: in vivo
Description: After 3 treatment cycles, animals rested (no treatment) for one more week before euthanasia. Body weight and physical status of all mice were closely monitored. Tissues were collected and fixed in alcoholic formalin to test for toxicity.

[3] = tested on: H1048, CM, MIA PaCa-2, PANC-1 and Luc-PANC-1 cancer cell lines; assay: Viability assay screen in a panel of cancer cell lines; type: cell-based; conditions: 10 uM, 72 hours (FIG. 8)
Method: Viability assay performed in a panel of cancer cell lines including H1048 (small cell lung cancer), CM (pancreatic neuroendocrine tumor), MIA PaCa-2 and PANC-1 (pancreatic ductal adenocarcinoma), Luc-PANC-1 (pancreatic ductal adenocarcinoma cells expressing firefly luciferase). Initial viability assay screens were performed with single drug concentration (10 μM) or DMSO control (0.25%). […] The threshold of 10 μM was selected since compounds showing under 50% viability at 10 μM would indicate greater cytotoxicity than disclosed TS inhibitor 5-FU and present a promising lead candidate for further study.
To identify potential TS small molecule inhibitors, molecular docking was used to computationally screen compounds with the ability to bind TS. The details of the procedure are presented in the Methods section. The top ranked 26 compounds were acquired and designated 1-A through 26-Z, then used to determine the cytotoxicity at a 10 uM concentration in several cancer cell lines. […] This initial computational screen provided a predictive model that allowed a preliminary assessment for possible drug candidates. Subsequent experiments were pursued to validate biological activity and to define mechanisms for TS inhibition.

[4] = tested on: Luc-CM disseminated tumors; assay: Luc-CM disseminated xenograft tumor model; type: in vivo, NSG mice
Method: as §2, §3, §4

## CCc1nc(N)nc(N)c1-c1ccc(N(C)Cc2ccccc2)c([N+](=O)[O-])c1 [Compound 19-S]
CM cells
  GI50: 95 nM
PANC-1 cells
  GI50: 8350 nM
[1]; 10 mg/kg PO until survival endpoint
  median survival: 68 days
[1]; 25 mg/kg IP, 4 cycles, vs vehicle
  body weight: no significant deviations
[1]; 25 mg/kg IP, 4 cycles, p=0.0029 vs vehicle
  final tumor mass: significantly reduced
[1]; 25 mg/kg IP, 5 days on/2 days rest, 4 cycles, p=0.0023 flux, p<0.0001 volume vs vehicle
  tumor progression (bioluminescence photon flux, tumor volume): inhibited tumor progression
[1]; 25 mg/kg PO until survival endpoint
  median survival: 84 days
[1]; 25 mg/kg oral gavage, 4 cycles
  adverse effects / body weight: did not show adverse effects or declines in body weight
[1]; 25 mg/kg oral gavage, 4 cycles (FIGS. 7A-7H)
  tumor progression (photon flux, tumor volume, excised tumor mass): inhibited tumor progression
[1]; 10 or 25 mg/kg PO (either dose), Kaplan-Meier
  survival compared to vehicle control: statistically significant (p=0.0027) prolonged survival
[1]; 10 or 25 mg/kg PO, at 6 weeks after cell injection, vs vehicle
  total flux (bioluminescence): significant reduction of total flux
[1]; 10 or 25 mg/kg PO, p=0.0079, maintained till endpoint
  tumor volume: significant inhibition of tumor volume
[1]; 10 or 25 mg/kg PO, survival study, vs vehicle
  body weight: no significant differences
MIA PaCa-2 cells; MIA PaCa-2, 72-hour treatment, highest concentration 350 μM (FIG. 4E)
  GI50: 200 to 840 nM
MIA PaCa-2 cells; MIA PaCa-2, 72 hour drug incubation (FIG. 1C)
  GI50: 1260 nM
BON cells
  IC50: 120 nM
[2]; 50 mg/kg IP, n=3 (FIG. 10B)
  mortality: found dead after 12th, 13th and 14th dose
[2]; 50 mg/kg IP, n=3 (FIG. 10C)
  mortality: 2 were found dead after 1st dose and one animal reached endpoint
[2]; 100 mg/kg IP, n=2 (FIG. 10B)
  mortality: found dead after 1st and 3rd dose
[2]; 100 mg/kg IP, n=3 (FIG. 10C)
  mortality: found dead after 1st dose
[2]; mouse, in vivo, IP, NSG mice, read-out: maximum tolerated dosage (MTD)
  MTD at 3 treatment cycles of 5 consecutive daily doses: 25 mg/kg
[3]
  cytotoxicity (viability): exhibited cytotoxicity in the 5 cell lines examined
[4]; 25 mg/kg IP, 3 cycles
  body weight and behavior: did not show significant deviations in body weight or display adverse behavior
[4]; 25 mg/kg IP, 3 cycles, p=0.0032 vs vehicle
  tumor progression (abdominal bioluminescence photon flux): efficiently inhibited tumor progression
[4]; 25 mg/kg oral gavage
  body weight: no significant deviations in body weight
